Experiment: physchem
Assay type: physicochemical

solubility (aqueous buffer): ~70 µg/mL
solubility (water): ~17400 µg/mL
SMILES: C[C@H]1NCc2cc(-c3ccc4c(=O)c(C(=O)O)cn(C5CC5)c4c3OC(F)F)ccc21 [des-quinolone, 1-Cyclopropyl-8-(difluoromethoxy)-7-[(1R)-1-methyl-2,3-dihydro-1H-5-isoindolyl]-4-oxo-1,4-dihydro-3-quinolinecarboxylic acid methanesulfonate monohydrate]

Source: patent US7175856B2, “Palatable oral suspension and method” (Bristol-Myers Squibb Company, priority 2002, dated 2007)
